Test results as given in publication PMC11173677, “Identification and Evaluation of Olive Phenolics in the Context of Amine Oxidase Enzyme Inhibition and Depression: In Silico Modelling and In Vitro Validation” (Molecules, 2024).
Like-named read-outs stand apart in the source and are kept apart here.

Tests used:
LSD1 [1] = biological target: T1, LSD1 (Homo sapiens, UniProt O60341); conditions: in vitro assays; cited from earlier work
T1 construct: Reaction Biology Corporation (performed the assay)

LSD1 [2] = biological target: T1, LSD1; test: LSD1 fluorescence coupling enzyme assay (Reaction Biology Corporation); type: biochemical; conditions: Reaction Biology Corp., 30 min pre-incubation, 10 μM histone H3(1-21)K4me2 peptide substrate; read-out: IC50, LSD1 demethylase activity
Description: The inhibitory activity of HCl 489479, OLC, and OLP was measured using a fluorescence coupling enzyme assay (performed by Reaction Biology Corporation). […] All compounds were pre-incubated for 30 min with the enzyme before the addition of 10 μM histone H3(1-21)K4me2 peptide substrate to start the reaction. Fluorescence was measured using an EnVision Multimode Plate Reader at Ex/Em = 535/590.

MAO-A/B expression = test: MAO-A/B protein expression in HC- or DEX-stimulated BJ cells (Western blotting); type: cell-based, human; conditions: 10 μM HC 5 days or 100 μM DEX 7 days, then 50 μM compound; Western blot
Description: (§1) The BJ cells were subsequently incubated with 10 μM HC or 100 μM DEX to stimulate MAO expression. […] The untreated BJ cells received normal growth medium. The cells were collected, homogenised, and analysed through Western blotting where the expression of MAO-A/B was determined through immunodetection of protein subtypes.

MAO-A [3] = tested on: T2, MAO-A; test: MAO-A activity assay in corticosteroid-stimulated BJ cells; type: cell-based, human; conditions: then 50 μM compound 24 h
T2 construct: endogenous in cells; host or cells: BJ human foreskin fibroblasts stimulated with DEX or HC
Description: as §1
(§2) Activity assays were commercially sourced from BioVision (Abcam, BioVision ab241031, Waltham, MA, USA) and were performed according to manufacturer’s instructions. The treatment groups were plated in duplicate on a black, flat 96-well microplate. The cells were homogenised in assay buffer using a microtube mixer at 4 °C and centrifuged at 10,000× g for 10 min. A Bradford assay was performed to determine the total protein concentration within each cell pellet (200 μg/well for BJ cells, 40 μg/well for hESC-derived neurons). Approximately 40 μL of supernatant was loaded into wells along with 10 μL of either […], or assay buffer for total MAO activity. A H2O2 standard was pipetted as supplied and 50 μL of reaction mix was pipetted into all wells. Using a CLARIOstar Plus Microplate Reader, (BMG Labtech, Ortenberg, Germany), fluorescence was measured kinetically at 25 °C for 60 min with Ex/Em = 535/587 nm.

total MAO [4] = test: Total MAO activity assay in corticosteroid-stimulated BJ cells; type: cell-based, human; conditions: then 50 μM compound 24 h
Description: as §1, §2

MAO-B [5] = tested on: T3, MAO-B; test: MAO-B activity assay in hESC-derived neurons stimulated with ATRA; type: cell-based, human; conditions: 1 μM ATRA 24 h, then TCP 5 μM, OLC 50 μM or OLP 50 μM for 24 h
T3 construct: endogenous in cells; host or cells: BJ human foreskin fibroblasts stimulated with DEX or HC
Description: (§3) An in vitro model of MDD was designed for stem cell-derived neuronal cells through incubation of 1 μM all-trans retinoic acid (Sigma-Aldrich PHR1187, St. Louis, MO, USA). All cell treatments were conducted in duplicate and replicated using independently differentiating neuronal plates.
as §2

MAO-B [6] = tested on: T3, MAO-B; test: MAO-B activity assay in corticosteroid-stimulated BJ cells; type: cell-based, human; conditions: then 50 μM compound 24 h
Description: as §1, §2

BJ cells = test: Viability of BJ cells (CellTiter-Blue Cell Viability Assay); type: cell-based, human; conditions: for IC50: Homo sapiens, BJ
Description: The BJ cells were seeded at densities of 10,000 cells in black flat bottom 96-well plates (Nalge Nunc, Penfield, Rochester, NY, USA) and treated with a dose–response of OLC (0–500 μM) and OLP (0–500 μM) for 24 h, 48 h, 72 h, and 7 days at 37 °C, 5% (v/v) CO2. Cell viability was measured using the Cell-Titer Blue® Assay kit (Promega, Madison, WI, USA) according to the manufacturer’s instructions. Cell-Titer Blue reagent was added to each well and incubated for 4 h at 37 °C with 5% (v/v) CO2 before the fluorescence intensity was read using the CLARIOstar Microplate Reader (BMG Labtech, Ortenberg, Germany).
A Nikon Eclipse Ts2 light microscope (Nikon Ti TS2-S-SM, Tokyo, Japan) was used to image untreated and treated BJ cells (OLP or OLC: 0–100 μM) at 4× objective magnification at 20, 44, and 120 h (Figures S1 and S2).

MAO-A [7] = tested on: T2, MAO-A; test: MAO-A activity assay in hESC-derived neurons stimulated with ATRA; type: cell-based, human; conditions: 1 μM ATRA 24 h, then TCP 5 μM, OLC 50 μM or OLP 50 μM for 24 h
Description: as §3, §2

purified MAO-A = biological target: T4, purified MAO-A (Homo sapiens, UniProt P21397); test: MAO-A direct screening assay (inhibitor screening kit); type: biochemical; conditions: purified enzyme; read-out: IC50, inhibition of MAO-A
T4 construct: purchased Sigma-Aldrich MAK295
T4 sequence (P21397 1-527): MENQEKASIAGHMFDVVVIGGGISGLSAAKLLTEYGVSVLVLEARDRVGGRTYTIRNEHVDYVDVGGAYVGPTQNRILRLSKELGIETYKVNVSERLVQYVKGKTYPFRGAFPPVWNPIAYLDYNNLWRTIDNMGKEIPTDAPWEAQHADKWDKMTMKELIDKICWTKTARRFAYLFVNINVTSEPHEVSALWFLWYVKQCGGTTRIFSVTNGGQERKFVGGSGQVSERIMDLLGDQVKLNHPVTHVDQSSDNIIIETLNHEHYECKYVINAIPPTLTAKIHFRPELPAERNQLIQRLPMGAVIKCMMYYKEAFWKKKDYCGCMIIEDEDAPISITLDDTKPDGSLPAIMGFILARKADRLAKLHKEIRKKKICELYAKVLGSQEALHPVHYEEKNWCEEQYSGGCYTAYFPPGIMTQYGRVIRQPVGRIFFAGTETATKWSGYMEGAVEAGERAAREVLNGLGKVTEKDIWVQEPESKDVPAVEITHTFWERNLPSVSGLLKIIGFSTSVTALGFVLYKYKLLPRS
Description: The assays were conducted for MAO-A and MAO-B according to the manufacturer’s instructions.

human skin fibroblasts = tested on: human skin fibroblasts; design: method as in PMID 37432217; conditions: in comparison to untreated controls, at certain doses; cited from earlier work
total MAO [8] = test: Total MAO activity assay in hESC-derived neurons stimulated with ATRA; type: cell-based, human; conditions: 1 μM ATRA 24 h, then TCP 5 μM, OLC 50 μM or OLP 50 μM for 24 h
Description: as §3, §2

Row | SMILES | IC50 (LSD1 [1]) | IC50 (LSD1 [2]) | MAO enzyme expression within BJ cells (MAO-A/B expression) | MAO-A activity in BJ cells (MAO-A [3]; 10 μM HC 5 days) | MAO-A activity in BJ cells (MAO-A [3]; 100 μM DEX 7 days) | total MAO activity in BJ cells (total MAO [4]; 10 μM HC 5 days) | total MAO activity in BJ cells (total MAO [4]; 100 μM DEX 7 days) | MAO-B activity in hESC-derived neurons (MAO-B [5]) | MAO-B activity in BJ cells (MAO-B [6]; 10 μM HC 5 days) | MAO-B activity in BJ cells (MAO-B [6]; 100 μM DEX 7 days) | relative viability of BJ cells at the highest concentration (BJ cells; 500 μM) | proliferation potential of BJ cells (BJ cells; 25, 50, 75 and 100 μM, similar to untreated cells) | IC50 (BJ cells; 24 h) | IC50 (BJ cells; 48 h) | toxicity to BJ cells at the concentrations used in further experiments (BJ cells; concentrations used in further experiments (50 μM)) | viability of BJ cells at lower concentrations (BJ cells; up to 200 μM) | MAO-A activity in hESC-derived neurons (MAO-A [7]) | IC50 (purified MAO-A) | growth capacity of human skin fibroblasts (human skin fibroblasts) | total MAO activity in hESC-derived neurons (total MAO [8])
1 | CC=C(C=O)C(CC=O)CC(=O)OCCc1ccc(O)c(O)c1 (stereo in doubt) [oleacein] | ~2.5 µM | – | – | – | – | – | – | – | – | – | – | – | – | – | – | – | – | – | – | –
2 | C/C=C(/C=O)[C@@H](CC=O)CC(=O)OCCc1ccc(O)cc1 [OLC, oleocanthal] | – | 12 µM | Potent inhibition | downregulate | downregulate | downregulate | downregulate | significantly reduced | downregulate | downregulate | reduction | maintained their proliferation potential | 123 µM | 111 µM | non-toxic | largely maintained | significantly reduced | 1.9 µM | significantly increased | significantly reduced
